Reference: paper PMC12083136 (Microbiome, 2025)

System: ruminal bacterial urease
Assay: urease activity
Type: biochemical

- IC50: 126.8 ± 1.2 µM
SMILES: C=CCS[S+]([O-])CC=C (stereo not shown) [allicin]
